Results from patent publication US10463667B2 (Incyte Corporation, priority 2007, dated 2019).

How the values were obtained:
[1] = target: T1, human Jak2 (a.a. 828-1132) catalytic domain (Homo sapiens, UniProt O60674); test: In vitro JAK kinase assay (HTRF), JAK2; type: biochemical; settings: 30 μM ATP; ranges = lowest and highest values of the stereoisomers tested; read-out: JAK 2 IC50
T1 construct: Jak2 (a.a. 828-1132); His tag (N); made in house; host or cells: insect cells (baculovirus)

[2] = Intrinsic clearance assay (human liver microsomes); type: in vitro ADME; settings: both sexes; 1 μM compound, human liver microsomes 0.5 mg/mL protein, 37° C., 1 mM NADPH; read-out: Human Intrinsic CL (converted)
Protocol: Intrinsic Clearance Assay
The disappearance of the test compound was monitored by LC/MS at […] The slope of decline in compound concentration was used to calculate the human intrinsic clearance by employing standard methods reported in the literature.

[3] = target: human JAK1 (a.a. 837-1142) catalytic domain (Homo sapiens, UniProt P23458); test: In vitro JAK kinase assay (HTRF), JAK1
[4] = target: human Jak3 (a.a. 781-1124) catalytic domain (Homo sapiens, UniProt P52333); test: In vitro JAK kinase assay (HTRF), JAK3
Sequence of human Jak3 (a.a. 781-1124) catalytic domain (P52333 781-1124): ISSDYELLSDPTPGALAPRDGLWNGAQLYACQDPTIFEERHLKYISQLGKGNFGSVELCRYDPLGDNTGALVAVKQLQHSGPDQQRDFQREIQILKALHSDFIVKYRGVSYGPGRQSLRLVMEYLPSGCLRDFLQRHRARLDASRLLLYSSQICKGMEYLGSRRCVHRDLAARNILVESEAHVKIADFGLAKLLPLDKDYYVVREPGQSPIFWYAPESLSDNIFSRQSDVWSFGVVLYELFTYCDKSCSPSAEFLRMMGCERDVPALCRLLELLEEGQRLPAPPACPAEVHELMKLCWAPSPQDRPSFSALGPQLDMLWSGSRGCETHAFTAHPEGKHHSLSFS

T1 sequence (O60674 828-1132): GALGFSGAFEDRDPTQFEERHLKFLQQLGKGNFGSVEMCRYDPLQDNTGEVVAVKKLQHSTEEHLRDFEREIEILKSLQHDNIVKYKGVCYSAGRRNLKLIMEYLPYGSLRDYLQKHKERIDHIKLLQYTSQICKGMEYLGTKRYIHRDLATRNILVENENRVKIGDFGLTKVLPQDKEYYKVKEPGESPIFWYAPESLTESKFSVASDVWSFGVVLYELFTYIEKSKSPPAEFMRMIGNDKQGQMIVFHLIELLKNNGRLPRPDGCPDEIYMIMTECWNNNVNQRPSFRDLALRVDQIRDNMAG
Sequence of human JAK1 (a.a. 837-1142) catalytic domain (P23458 849-1154): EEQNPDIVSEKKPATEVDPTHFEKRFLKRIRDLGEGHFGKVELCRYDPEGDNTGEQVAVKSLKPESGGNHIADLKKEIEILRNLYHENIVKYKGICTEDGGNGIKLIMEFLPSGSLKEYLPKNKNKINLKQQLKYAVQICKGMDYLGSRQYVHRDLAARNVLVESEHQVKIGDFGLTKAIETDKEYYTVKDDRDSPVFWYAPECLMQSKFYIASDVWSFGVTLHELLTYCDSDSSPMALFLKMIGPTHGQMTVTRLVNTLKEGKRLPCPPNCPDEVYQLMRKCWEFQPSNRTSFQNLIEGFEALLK

SMILES | IC50 [1] [nM] | CLint scaled at 1 μM [2] [mL/min/kg] | IC50 [3] [nM] | IC50 [4] [nM]
N#CCC(C1CCC(=O)C1)n1cc(-c2ncnc3[nH]ccc23)cn1 (stereo not shown) [Metabolite 3, 3-(4-(7H-pyrrolo[2,3-d]pyrimidin-4-yl)-1H-pyrazol-1-yl)-3-(3-oxycyclopentyl)propanenitrile] | 2.1 to 5.9 | < 9.5 | 2.7 to 12 | 11 to 41
N#CC[C@H](C1CCCC1)n1cc(-c2ncnc3[nH]ccc23)cn1 [Compound 1, (R)-3-(4-(7H-pyrrolo[2,3-d]pyrimidin-4-yl)-1H-pyrazol-1-yl)-3-cyclopentylpropanenitrile, reference compound] |  | 11.3 |  | 
N#CCC(C1CCCC1O)n1cc(-c2ncnc3[nH]ccc23)cn1 (stereo not shown) [Metabolite 2, 3-(4-(7H-pyrrolo[2,3-d]pyrimidin-4-yl)-1H-pyrazol-1-yl)-3-(2-hydroxycyclopentyl)propanenitrile] | 2 to 2.8 | < 8.33 | 3 to 15 | 17 to 30
N#CCC(C1CCC(O)C1)n1cc(-c2ncnc3[nH]ccc23)cn1 (stereo not shown) [Metabolite 1, 3-(4-(7H-pyrrolo[2,3-d]pyrimidin-4-yl)-1H-pyrazol-1-yl)-3-(3-hydroxycyclopentyl)propanenitrile] | 0.7 to 2.5 | < 8.33 | 2.5 to 12 | 8.3 to 45
